# Measurements published in US10125112B2, “Modulators of the relaxin receptor 1” (The United States of America, as Represented by the …, priority 2012, dated 2018).
# What was measured:
# [1] = biological target: T1, RXFP2 (Homo sapiens, UniProt Q8WXD0); assay: RXFP2 cAMP assay in HEK293-RXFP2 cells; assay type: cell-based; conditions: for Emax: 0.5 h, read-out: RXFP2 AC50 (μM, Max. Resp.): Max. Resp.; for AC50: HEK293-RXFP2 cells, inactive = Maximum response less than 30%, read-out: RXFP2 AC50 (μM, Max. Resp.): AC50
# T1 construct: expressed in transfected cells
# T1 sequence (Q8WXD0 whole entry, species assumed): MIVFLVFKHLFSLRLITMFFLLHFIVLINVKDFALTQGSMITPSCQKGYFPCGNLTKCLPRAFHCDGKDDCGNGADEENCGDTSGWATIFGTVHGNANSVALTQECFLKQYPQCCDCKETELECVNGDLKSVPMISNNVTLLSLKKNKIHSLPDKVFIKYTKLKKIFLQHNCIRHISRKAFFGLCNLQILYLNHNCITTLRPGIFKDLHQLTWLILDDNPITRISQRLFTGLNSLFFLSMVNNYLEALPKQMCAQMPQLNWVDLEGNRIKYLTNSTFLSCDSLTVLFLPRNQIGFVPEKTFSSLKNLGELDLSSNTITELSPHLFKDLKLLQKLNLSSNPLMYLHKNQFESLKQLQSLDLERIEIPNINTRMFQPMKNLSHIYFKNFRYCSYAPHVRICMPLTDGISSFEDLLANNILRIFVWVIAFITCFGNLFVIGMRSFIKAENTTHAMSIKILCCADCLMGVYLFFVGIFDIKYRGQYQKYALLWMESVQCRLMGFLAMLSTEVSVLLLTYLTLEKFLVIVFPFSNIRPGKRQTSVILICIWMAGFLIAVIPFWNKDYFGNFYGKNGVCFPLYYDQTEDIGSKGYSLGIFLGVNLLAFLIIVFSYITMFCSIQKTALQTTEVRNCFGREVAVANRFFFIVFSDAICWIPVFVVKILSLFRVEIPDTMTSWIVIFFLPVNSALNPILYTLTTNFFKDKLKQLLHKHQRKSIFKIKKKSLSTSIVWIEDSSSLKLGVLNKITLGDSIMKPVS
# Method: HEK293 cells stably transfected with RXFP2, the cognate receptor for another relaxin family peptide, insulin-like 3, (HEK293-RXFP2) was used to test compound specificity towards the RXFP1 receptor. For this assay, cells were seeded at 8,000 cells/well in 30 µL/well of media with a MultiDrop Combi dispenser (Thermo Scientific), and allowed to attach overnight at 37° C., 5% CO2. Next, 2 µL/well of 1.6 mM Ro 20-1724 solution in PBS+(DPBS, 1 mM CaCl2, 0.5 mM MgCl2, 0.05% BSA, 0.005% Tween 20) were dispensed using a BioRAPTR FRD dispenser (Beckman Coulter, Brea, Calif.), followed addition of 0.25 μL/well of compound solution in DMSO with CyBi-well dispenser (CyBio, Jena, Germany). The cells were allowed to be stimulated with the compounds for 30 minutes at 37° C., 5% CO2, after which, 8 μL/well of each HTRF detection reagent (diluted according to assay kit directions in HTRF lysis buffer) was dispensed with a BioRAPTR FRD dispenser. The plates were incubated for 30 minute at 37° C., and then the signal was read on a ViewLux plate reader (PerkinElmer, Waltham, Mass.).
# [2] = PBS solubility; assay type: physicochemical
# [3] = ATP Cytotoxicity assay (ATPLite) in HEK293-RXFP1 cells; assay type: cell-based; conditions: human, inactive = Maximum response less than 30%, read-out: ATP Tox. EC50 (μM, Max. Resp.): EC50
# Method: This follow-up assay was conducted to measure the effect of compounds on cell viability by measuring ATP levels (ATPLite™). ATPLite™ is an Adenosine TriPhosphate (ATP) monitoring system based on firefly (Photinus pyralis) luciferase. The level of ATP in a metabolically active cell is a general marker for its viability. ATP levels are often reduced during necrosis or apoptosis. In this assay, the luciferase enzyme catalyzes the conversion of the added substrate D-luciferin to oxyluciferin and light with ATP. Thus, the emitted light is proportional to the ATP concentration. […] After compound incubation, the levels of ATP in each well were measured with the addition of the ATPLite assay reagent.
# [4] = biological target: T2, RXFP1 (Homo sapiens, UniProt Q9HBX9); assay: RXFP1 cAMP assay in HEK293-RXFP1 cells (HTRF); assay type: cell-based; conditions: percentage of the maximal receptor activation induced by high concentrations of forskolin; Tables 1-7; read-out: Max Response
# T2 construct: expressed in transfected cells
# T2 sequence (Q9HBX9 1-757): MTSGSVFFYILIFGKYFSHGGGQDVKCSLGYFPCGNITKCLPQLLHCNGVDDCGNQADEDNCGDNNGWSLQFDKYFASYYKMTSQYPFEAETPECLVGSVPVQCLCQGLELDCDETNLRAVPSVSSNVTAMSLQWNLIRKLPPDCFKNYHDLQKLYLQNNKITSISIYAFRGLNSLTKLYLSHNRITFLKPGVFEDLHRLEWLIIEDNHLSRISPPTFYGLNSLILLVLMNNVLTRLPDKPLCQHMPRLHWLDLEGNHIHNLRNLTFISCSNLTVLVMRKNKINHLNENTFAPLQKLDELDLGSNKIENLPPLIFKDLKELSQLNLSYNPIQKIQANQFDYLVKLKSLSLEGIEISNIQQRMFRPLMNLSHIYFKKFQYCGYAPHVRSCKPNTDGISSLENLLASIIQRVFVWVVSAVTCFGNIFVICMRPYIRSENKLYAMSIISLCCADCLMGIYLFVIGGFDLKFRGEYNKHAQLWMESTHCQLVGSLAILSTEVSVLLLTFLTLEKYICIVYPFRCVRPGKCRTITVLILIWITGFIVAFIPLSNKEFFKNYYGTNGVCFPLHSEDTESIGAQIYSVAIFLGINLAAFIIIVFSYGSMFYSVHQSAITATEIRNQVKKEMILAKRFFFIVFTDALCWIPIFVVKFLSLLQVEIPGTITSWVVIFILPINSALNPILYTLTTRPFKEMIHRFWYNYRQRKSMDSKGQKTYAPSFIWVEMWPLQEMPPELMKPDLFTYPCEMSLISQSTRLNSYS
# Method: The RXFP1 receptor couples to the Gs protein, and activation of the receptor results in stimulation of cAMP production. […] The TR-FRET between the K-α-cAMP and cAMP-d2 is disrupted by cAMP in the cell lysates, thus allowing TR-FRET detection in a homogenous format that is suitable for HTS. […] The primary screen was carried out in 1536-well format, however, because of a more robust signal to background ratio, all subsequent follow-up experiments were carried out in 384-well format.
# For the primary screen, HEK293-RXFP1 cells were seeded at 2,000 cells/well in 3 μL/well media with a MultiDrop Combi dispenser (Thermo Scientific, Logan, Utah), and allowed to attach overnight at 37° C., 5% CO2. […] The cells were allowed to be stimulated with the compounds for 30 minutes at 37° C., 5% CO2, after which, 1 μL/well of each HTRF detection reagent was dispensed with a BioRAPTR FRD dispenser. The detection reagents were diluted before addition as follows: K-α-cAMP antibody at 1:20 and cAMP-d2 at 1:18 in HTRF lysis buffer (supplied by the assay kit). The plates were incubated for 30 minute at room temperature, and then the signal was read on a ViewLux plate reader (PerkinElmer, Waltham, Mass.).
# The assay was run according to the following protocol:
# Max Response indicates what the maximal amount of functional activity induced by the compound is, as a percentage of the maximal receptor activation induced by high concentrations of forskolin.
# [5] = biological target: T3, vasopressin receptor 1b (Homo sapiens, UniProt P47901); assay: V1b cAMP assay in HEK293-V1b cells; assay type: cell-based; conditions: inactive = Maximum response less than 30%
# T3 construct: expressed in transfected cells
# T3 sequence (P47901 1-424): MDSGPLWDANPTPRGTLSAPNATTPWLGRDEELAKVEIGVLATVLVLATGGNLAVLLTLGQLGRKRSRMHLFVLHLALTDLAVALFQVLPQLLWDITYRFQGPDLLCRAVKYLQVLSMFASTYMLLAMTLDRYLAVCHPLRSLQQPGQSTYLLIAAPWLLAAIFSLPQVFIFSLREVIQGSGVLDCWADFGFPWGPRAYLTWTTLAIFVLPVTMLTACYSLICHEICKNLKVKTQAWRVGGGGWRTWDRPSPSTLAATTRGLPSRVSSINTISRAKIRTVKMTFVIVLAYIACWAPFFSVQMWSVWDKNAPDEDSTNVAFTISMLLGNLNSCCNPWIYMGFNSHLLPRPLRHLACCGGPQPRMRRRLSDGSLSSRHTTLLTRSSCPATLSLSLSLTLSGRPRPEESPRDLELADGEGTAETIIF
# Method: HEK293 stably transfected with a nonrelated G protein coupled receptor, vasopressin receptor 1b (HEK293-V1b), were used as an additional counter screen to eliminate compounds that increase cAMP HTRF signal through non-RXFP1 dependent mechanisms. For this assay, cells were seeded at 8,000 cells/well in 30 µL/well media with a MultiDrop Combi dispenser (Thermo Scientific, Logan, Utah), and allowed to attach overnight at 37° C., 5% CO2. Next, 2 μL/well of 1.6 mM Ro 20-1724 solution in PBS+(DPBS, 1 mM CaCl2, 0.5 mM MgCl2, 0.05% BSA, 0.005% Tween 20) was dispensed using a BioRAPTR FRD dispenser (Beckman Coulter, Brea, Calif.), followed by additional of 0.25 μL/well of compound solution in DMSO with CyBi-well dispenser (CyBio, Jena, Germany). The cells were allowed to be stimulated with the compounds for 30 minutes at 37° C., 5% CO2, after which, 8 μL/well of each HTRF detection reagent (diluted according to assay kit directions in HTRF lysis buffer) was dispensed with a BioRAPTR FRD dispenser. The plates were incubated for 30 minute at room temperature, and then the signal was read on a ViewLux plate reader (PerkinElmer, Waltham, Mass.).
# [6] = test system: cAMP in THP-1 cells; assay: cyclic AMP assay in THP-1 cells; assay type: cell-based; conditions: Homo sapiens, THP-1, 0.5 h
# Method: This Example illustrates the cyclic AMP assay in THP-1 cells. THP-1 cells were propagated in RPMI-1640 supplemented with 20% FBS, 0.05 mM β-mercaptoethanol, 100 U/mL penicillin and 100 μg/mL streptomycin at 37° C. in 5% CO2. Before assaying for cAMP response, cells were serum starved in RPMI-1640 supplemented with 0.05 mM (3-mercaptoethanol, 100 U/mL penicillin and 100 μg/mL streptomycin at 37° C. in 5% CO2 for 16 hrs. For 384-well format assays, cells were seeded as 30,000 cells/well in 30 μL/well media with a MultiDrop Combi dispenser (Thermo Scientific, Waltham, Mass.). Subsequently, 2 μL/well of 1.6 mM Ro 20-1724 and 160 uM forskolin in PBS+ (DPBS, 1 mM CaCl2, 0.5 mM MgCl2, 0.05% BSA, 0.005% Tween 20) was dispensed using a BioRAPTR FRD dispenser (Beckman Coulter, Brea, Calif.). Immediately after, 0.25 μL/well of compound solutions in DMSO was dispensed with CyBi-well dispenser (CyBio, Jena, Germany). The cells were allowed to be stimulated with compounds for 30 min at 37° C. in 5% CO2, after which, 8 μL/well of each HTRF cAMP HiRange kit (CisBio, Bedford, Mass.) detection reagent was dispensed with a BioRAPTR FRD dispenser. The detection reagents were diluted as such: K-α-cAMP antibody at 1:20 and cAMP-d2 at 1:18 in HTRF lysis buffer (supplied by the assay kit). The plates were incubated for 30 min at room temperature before the signal was read on an Envision plate reader (PerkinElmer, Waltham, Mass.).
compound,measurement,setting,value
COc1ccccc1C(=O)Nc1ccccc1C(=O)Nc1cccc(SC(F)(F)F)c1 [Example 158],Emax,[1],54%
same,AC50,[1],3.34 µM
same,solubility,[2]; aqueous buffer,2.9 µM
same,EC50 at 72 h,[3],3.74 µM
same,Emax,[4],99%
"CCOc1ccccc1C(=O)Nc1ccccc1C(=O)Nc1cccc(S(=O)(=O)C(F)(F)F)c1 [Example 174, 2-Ethoxy-N-(2-((3-((trifluoromethyl)sulfonyl)phenyl)carbamoyl)phenyl)benzamide]",Emax,[1],38%
same,AC50,[1],7.47 µM
same,"V1b AC50 (μM, Max. Resp.): AC50",[5],inactive^a
same,PBS Solubility,[2],<1.1 µM
same,EC50,[6],0.362 µM
CCCOc1ccccc1C(=O)Nc1ccccc1C(=O)Nc1cccc(S(=O)(=O)C(F)(F)F)c1 [Example 179],EC50 at 72 h,[3],9.4 µM
same,Emax,[4],98%
